Earlier results in US20200061053A1, “PHARMACEUTICAL COMPOSITION AND METHOD FOR ACUTE ON CHRONIC LIVER FAILURE AND RELATED LIVER DISEASES” (priority 2018, published 2020).

Columns and labels:
liver = conditions: in vivo
[1] = laboratory test indicators, liver failure patients, TMZ 20 mg three times a day

COc1ccc(CN2CCNCC2)c(OC)c1OC.Cl.Cl [TMZ, 1-[2,3,4-trimethoxybenzyl] piperazine dihydrochloride]
30-day immortality rate of liver failure patients (liver failure patients; TMZ tablets 20 mg orally, three times a day, 4-week course, hospitalized liver failure patients, traditional therapeutic approach 44%): approximately 18%
90-day immortality rate of liver failure patients (liver failure patients; TMZ tablets 20 mg orally, three times a day, 4-week course, hospitalized liver failure patients, traditional therapeutic approach 68%): 35%
decrease rate of alanine aminotransferase (liver failure patients; [1]): significantly raise the decrease rate
decrease rate of aspartate transaminase (liver failure patients; [1]): significantly raise the decrease rate
maintaining liver functions and decreasing transaminase levels (alanine aminotransferase, aspartate transaminase) (liver failure patients; patients suffering from liver diseases and conditions, clinical research and trial results): significant effects in maintaining liver functions and decreasing transaminase levels
liver toxicity (liver): minimal liver toxicity
